The results in this text go back to US20130296311A1, “INHIBITORS OF HCV NS5A” (PRESIDIO PHARMACEUTICALS, INC., priority 2010, published 2013).

Each structure is given as a SMILES string. Like-named read-outs stand apart in the source and are kept apart here.

The test concerns HCV 1b_Huh-Luc/Neo-ET cell line persistently expressing a bicistronic genotype 1b replicon in Huh 7 cells. Description: HCV replicon assay (luciferase readout, 72 h). Type of test: cell-based, HCV genotype 1b. The note with it: Hepatitis C virus. As for the experimental part:
Biological activity of the compounds of the invention was determined using an HCV replicon assay. The HCV 1b_Huh-Luc/Neo-ET cell line persistently expressing a bicistronic genotype 1b replicon in Huh 7 cells was obtained from ReBLikon GMBH. This cell line was used to test compound inhibition using luciferase enzyme activity readout as a measurement of compound inhibition of replicon levels.
On Day 1 (the day after plating), each compound is added in triplicate to the cells. Plates incubated for 72 h prior to running the luciferase assay. Enzyme activity was measured using a Bright-Glo Kit (cat. number E2620) manufactured by Promega Corporation. The following equation was used to generate a percent control value for each compound.
% Control=(Average Compound Value/Average Control)*100
The EC50 value was determined using GraphPad Prism and the following equation:
Y=Bottom+(Top-Bottom)/(1+10̂((LogIC50−X)*HillSlope))
EC50 values of compounds are determined several times in the replicon assay.
Example compounds of the disclosed invention are illustrated in Tables 1-16 attached as appendices. The tables show inhibitory activity of many of the example compounds with respect to HCV 1b. […] The tables further provide mass spectrometry results for the synthesized example compounds.

Where [1] appears, read: Huh-7, 72 h, read-out: Inhibition of HCV genotype 1b.
Where [2] appears, read: Huh-7, read-out: Inhibition of HCV genotype 1b.

As for `CN(C)[C@@H](C(=O)N1CCC[C@H]1c1ncc(C#Cc2ccc(-c3cnc([C@@H]4CCCN4C(=O)[C@H](NC(=O)C4CC4)c4ccccc4)[nH]3)cc2)[nH]1)c1ccccc1` [Compound 133], the EC50 under setting [1] was less than 1 nM. On the same count and under the same terms, then `COC(=O)N[C@H](C(=O)N1CCC[C@H]1c1nc2ccc(-c3ccc(C#Cc4cnc([C@@H]5CCCN5C(=O)[C@H](NC(=O)OC)c5ccccc5)[nH]4)cc3)cc2[nH]1)C(C)C` [Compound 1085], with less than 1 nM; and `COC(=O)N[C@@H](C(=O)N[C@@H](C)c1ncc(-c2ccc(C#Cc3ccc(-c4cnc([C@@H]5CCCN5C(=O)[C@H](NC(=O)OC)C(C)C)[nH]4)cc3)cc2)[nH]1)C(C)C` [Compound 290], with more than 1000 nM. For `COC(=O)N[C@@H](C(=O)N1CCC[C@H]1c1ncc(-c2ccc(C#Cc3ccc(-c4cnc([C@@H]5CCCN5C(=O)[C@H](NC(=O)[C@H]5CCCN5)c5ccccc5)[nH]4)cc3)cc2)[nH]1)c1ccccc1` [Compound 207], under setting [1], the EC50 is less than 1 nM. Still for that read-out and setting: with `COC(=O)N[C@@H](CC(=O)O)C(=O)N1CCC[C@H]1c1ncc(-c2ccc(C#Cc3ccc4nc([C@@H]5CCCN5C(=O)[C@H](CC(=O)O)NC(=O)OC)[nH]c4c3)cc2)[nH]1` [Compound 1061] the figure was 10 to 999 nM; with `CN(C)[C@@H](C(=O)N1CCC[C@H]1c1ncc(-c2ccc(C#Cc3ccc(-c4cnc([C@@H]5CCCN5C(=O)[C@@H](c5ccccc5)N(C)C)[nH]4)cc3)cc2)[nH]1)c1ccccc1` [Compound 160], less than 1 nM. As to `COC[C@H](NC(=O)OC)C(=O)N1CCC[C@H]1c1nc2ccc3cc(C#Cc4ccc5nc([C@@H]6CCCN6C(=O)[C@@H](NC(=O)OC)C(C)C)[nH]c5c4)ccc3c2[nH]1` [Compound 1288], the EC50 under setting [2] was less than 1 nM. Take `COC(=O)N[C@@H](CC(C)C)C(=O)N1CCC[C@H]1c1ncc(-c2ccc(C#Cc3ccc4nc([C@@H]5CCCN5C(=O)[C@H](CC(C)C)NC(=O)OC)[nH]c4c3)cc2)[nH]1` [Compound 1067]: the EC50 under setting [1] was less than 1 nM.

With `C[C@H](NC(=O)[C@@H]1CCCN1C(=O)[C@H](NC(=O)C1CC1)c1ccccc1)c1ccc(C#Cc2ccc(-c3cnc([C@@H]4CCCN4C(=O)[C@H](NC(=O)C4CC4)c4ccccc4)[nH]3)cc2)cc1` [Compound 191], the EC50 under setting [1] is less than 1 nM. Still for that read-out and setting: with `COC(=O)N[C@H](C(=O)N1CCC[C@H]1c1ncc(-c2ccc(C#Cc3ccc4nc([C@@H]5CCCN5C(=O)[C@@H](c5ccccc5)N(C)C)[nH]c4c3)cc2)[nH]1)C(C)C` [Compound 860] the figure was less than 1 nM; with `CN1CCC[C@@H]1C(=O)N[C@@H](C(=O)N1CCC[C@H]1c1ncc(-c2ccc(C#Cc3ccc(-c4cnc([C@@H]5CCCN5C(=O)[C@H](NC(=O)C5CC5)c5ccccc5)[nH]4)cc3)cc2)[nH]1)c1ccccc1` [Compound 216], less than 1 nM. On the same count and under the same terms, then `COC(=O)N[C@H](C(=O)N1CCC[C@H]1c1ncc(-c2ccc(C#Cc3ccc(-c4cnc([C@@H]5CCCN5C(=O)[C@@H](NC(=O)OC)C5CCOCC5)[nH]4)c(F)c3)cc2)[nH]1)C1CCOCC1` [Compound 1012], with less than 1 nM. Same read-out and setting: then `COC(=O)N[C@@H](C)C(=O)N1CCC[C@H]1c1ncc(-c2ccc(C#Cc3ccc(-c4cnc([C@@H]5CCCN5C(=O)[C@H](NC(=O)OC)c5ccccc5)[nH]4)cc3)cc2)[nH]1` [Compound 1004], with less than 1 nM; and `O=C([C@@H](c1ccccc1)N1CCOCC1)N1CCC[C@H]1c1ncc(-c2ccc(C#Cc3ccc(-c4cnc([C@@H]5CCCN5C(=O)[C@@H](c5ccccc5)N5CCOCC5)[nH]4)cc3)cc2)[nH]1` [Compound 184], with less than 1 nM; and `CN1CCN(C(=O)N[C@@H](C(=O)N2CCC[C@H]2c2cc(-c3ccc(C#Cc4ccc(-c5cnc([C@@H]6CCCN6C(=O)[C@H](NC(=O)N6CCN(C)CC6)c6ccccc6)[nH]5)cc4)cc3)n[nH]2)c2ccccc2)CC1` [Compound 213], with less than 1 nM. `COC(=O)N[C@H](C(=O)N1CCC[C@H]1c1ncc(-c2ccc(C#Cc3ccc(-c4cnc([C@H](C)NC(=O)[C@@H](C(C)C)N(C)C)[nH]4)cc3)cc2)[nH]1)C(C)C` [Compound 982]: the EC50 under setting [1] was in the range of 10 to 999 nM. Same read-out and setting: with `CC(C)[C@H](NC(=O)N1CCOCC1)C(=O)N1CCC[C@H]1c1ncc(-c2ccc(C#Cc3ccc(-c4cnc([C@@H]5CCCN5C(=O)[C@@H](NC(=O)N5CCOCC5)C(C)C)[nH]4)cc3)cc2)[nH]1` [Compound 285] the figure was more than 1000 nM; with `COC(=O)N[C@@H](C(=O)N(C)[C@@H](C)c1ncc(-c2ccc(C#Cc3ccc(-c4cnc([C@@H]5CCCN5C(=O)[C@H](NC(=O)OC)c5ccccc5)[nH]4)cc3)cc2)[nH]1)c1ccccc1` [Compound 274], less than 1 nM. Take `COC(=O)N[C@@H](C)C(=O)N1CCC[C@H]1c1ncc(-c2ccc(C#Cc3ccc(-c4cnc([C@@H]5CCCN5C(=O)[C@@H](c5ccccc5)N5CCOC5=O)[nH]4)cc3)cc2)[nH]1` [Compound 1008]: the EC50 under setting [1] is less than 1 nM. On the same count and under the same terms, then `CN1CCN(C(=O)N[C@@H](C(=O)N2CCC[C@H]2c2ncc(C#Cc3ccc(C#Cc4cnc([C@@H]5CCCN5C(=O)[C@H](NC(=O)N5CCN(C)CC5)c5ccccc5)[nH]4)cc3)[nH]2)c2ccccc2)CC1` [Compound 310], with 1 to 9.9 nM. On the same count and under the same terms, then `COC(=O)N[C@@H](C(=O)N1CCC[C@H]1c1ncc(-c2ccc(C#Cc3ccc(-c4cnc([C@@H]5CCCN5C(=O)[C@H](OC)c5ccccc5)[nH]4)cc3)cc2)[nH]1)c1ccccc1` [Compound 179], with less than 1 nM; and `COC(=O)N[C@@H](C)C(=O)N1CCC[C@H]1c1ncc(-c2ccc(C#Cc3ccc(-c4cnc([C@@H]5CCCN5C(=O)[C@H](C)NC(=O)OC)[nH]4)cc3)cc2)[nH]1` [Compound 962], with less than 1 nM. For the compound `COC(=O)N[C@H](C(=O)N1CCC[C@H]1c1nc2c([nH]1)-c1ccc(C#Cc3ccc4nc([C@@H]5CCCN5C(=O)[C@H](NC(=O)OC)c5ccccc5)[nH]c4c3)cc1CCC2)C(C)C` [Compound 1281], the EC50 under setting [2] was less than 1 nM.

`COC(=O)N[C@H](C(=O)N1CCC[C@H]1c1nc(-c2ccc3cc(C#Cc4[nH]c([C@@H]5CCCN5C(=O)[C@@H](NC(=O)OC)C(C)C)nc4C)ccc3c2)c[nH]1)C(C)C` [Compound 1081]: the EC50 under setting [1] was less than 1 nM.

As to `COC(=O)N[C@H](C(=O)N[C@@H](C)c1ncc(-c2ccc(C#Cc3ccc(-c4cnc([C@@H]5CCCN5C(=O)[C@@H](NC(=O)OC)C(C)C)[nH]4)cc3)cc2)[nH]1)C(C)C` [Compound 275], under setting [1], the EC50 is less than 1 nM. The same measure, in the same setting: then `C[C@@H](NC(=O)[C@@H]1CCCN1C(=O)[C@H](NC(=O)OC(C)(C)C)c1ccccc1)c1ccc(C#Cc2ccc(-c3cnc([C@@H]4CCCN4C(=O)[C@H](NC(=O)OC(C)(C)C)c4ccccc4)[nH]3)cc2)cc1` [Compound 167], with 1 to 9.9 nM. Same read-out and setting: then `O=C(N[C@@H](C(=O)N1CCC[C@H]1C(=O)Nc1ccc(C#Cc2ccc(-c3cnc([C@@H]4CCCN4C(=O)[C@H](NC(=O)C4CC4)c4ccccc4)[nH]3)cc2)cc1)c1ccccc1)C1CC1` [Compound 166], with less than 1 nM; and `CO[C@@H](C(=O)N1CCC[C@H]1c1ncc(-c2ccc(C#Cc3ccc(-c4cnc([C@@H]5CCCN5C(=O)[C@H](OC)c5ccccc5)[nH]4)cc3)cc2)[nH]1)c1ccccc1` [Compound 172], with less than 1 nM. Same read-out and setting: with `COC(=O)N[C@@H](C(=O)N1CCC[C@H]1c1ncc(-c2ccc(C#Cc3ccc(-c4cnc([C@@H]5CCCN5C(=O)[C@@H](c5ccccc5)N5CCCC5)[nH]4)cc3)cc2)[nH]1)c1ccccc1` [Compound 178] the figure was less than 1 nM. For the compound `COC(=O)N[C@H](C(=O)N1CCC[C@H]1c1ncc(-c2ccc3cc(C#Cc4ccc5nc([C@@H]6CCCN6C(=O)[C@@H](NC(=O)OC)C(C)C)[nH]c5c4)ccc3c2)[nH]1)C(C)C` [Compound 1111], the EC50 under setting [1] is less than 1 nM.

On to `CC(C)[C@H](NC(=O)OC(C)(C)C)C(=O)N1CCC[C@H]1c1ncc(-c2ccc(C#Cc3ccc(-c4cnc([C@@H]5CCCN5C(=O)[C@@H](NC(=O)OC(C)(C)C)C(C)C)[nH]4)cc3)cc2)[nH]1` [Compound 165], for which the EC50 under setting [1] was 10 to 999 nM. For `COC(=O)N[C@@H](C(=O)N1CCC[C@H]1c1ncc(C#Cc2ccc(-c3cnc([C@@H]4CCCN4C(=O)[C@@H](c4ccccc4)N(C)C)[nH]3)cc2)[nH]1)c1ccccc1` [Compound 123], the EC50 under setting [1] is less than 1 nM.

For `COC(=O)N[C@@H](C(=O)N1CCC[C@H]1c1ncc(-c2ccc(C#Cc3ccc(-c4cnc([C@@H]5CCCN5C(=O)[C@H](NC(=O)N5CC[C@@H](OC)C5)c5ccccc5)[nH]4)cc3)cc2)[nH]1)c1ccccc1` [Compound 271], the EC50 under setting [1] is less than 1 nM. On the same count and under the same terms, with `O=C(N[C@@H](C(=O)N1CCC[C@H]1c1ncc(-c2ccc(C#Cc3ccc(-c4cnc([C@@H]5CCCN5C(=O)[C@H](NC(=O)C5CC5)c5ccccc5)[nH]4)cc3)cc2)[nH]1)c1ccccc1)C1CC1` [Compound 153] the figure was less than 1 nM. As to `COC(=O)N[C@H](C(=O)N1CCC[C@H]1c1ncc(-c2ccc3cc(C#Cc4[nH]c([C@@H]5CCCN5C(=O)[C@@H](NC(=O)OC)[C@@H](C)OC)nc4C(F)(F)F)ccc3c2)[nH]1)C1CCCC1` [Compound 1260], the EC50 under setting [2] is less than 1 nM. Take `COC(=O)N[C@@H](C(=O)N1CCC[C@H]1c1ncc(-c2ccc(C#Cc3ccc(-c4cnc([C@@H]5CCCN5C(=O)[C@@H]5CCCN5C)[nH]4)cc3)cc2)[nH]1)c1ccccc1` [Compound 202]: the EC50 under setting [1] was less than 1 nM. On the same count and under the same terms, with `COC(=O)N[C@H](C(=O)N1CCC[C@H]1c1nc2ccc(C#Cc3ccc(-c4ccc5nc([C@@H]6CCCN6C(=O)[C@@H](NC(=O)OC)C(C)C)[nH]c5c4)nc3)cc2[nH]1)C(C)C` [compound 1083] the figure was less than 1 nM.
